Results: article PMC10534891, “Evaluation of 4-Aminoquinoline Hydrazone Analogues as Potential Leads for Drug-Resistant Malaria” (Molecules, 2023)

How the values were obtained:
P. falciparum K1 strain [1] = assay: P. falciparum K1 asexual growth inhibition, 48 h, SYBR Green-based plate reader assay; assay type: cell-based, Plasmodium falciparum; settings: K1 strain, trophozoite stage, 48 h incubation; for IC50: Plasmodium falciparum, read-out: Plasmodium IC50 ± SE
Experimental: Sixteen 4-amino-6-methoxy-quinoline hydrazone compounds (see Figure S1, Supplementary Materials for full structures), with methyl and phenyl substituents at the 2-position (R = Me, Ph) and various substituents at R’ (Table 1), were tested for their antimalarial activities. A 1% parasitised culture at the trophozoite stage was treated with the compounds for 48 h at concentrations of 0.003050–200 µM (four-fold serial dilution) against the P. falciparum K1 strain, and the growth was measured using the SYBR Green-based plate reader assay.
(§1) In total, 1% of infected RBCs at the ring or trophozoites stage was exposed to nine dilutions (four-fold serial dilution) of compounds from 50 mM stock solutions in DMSO. A total of 100 µL of culture volume was added in 96-well plates with 100 µL drug dilutions. Plates were either incubated for 48 h or 72 h at 37 °C, 5% CO2, 5% O2 in N2. Following the incubation, 150 µL of the medium was carefully removed and 150 µL of the 5× SYBR Green solution (prepared by adding 2 µL of 10,000× SYBR Green in 4 mL of PBS) was added to each well. Plates were kept in the dark for 45 min. Fluorescence intensity was measured using a microplate reader (Genius Tecan) with an excitation of 485 nm and an emission of 535 nm.
(§2) IC50 values were determined using Graph Pad Prism 5.0. Values were calculated using non-linear regression by using log-transformed drug concentration plotted against dose–response. Parasitaemia was calculated and normalised relative to the response on the controls (cultures without drug).

P. falciparum K1 strain [2] = assay: P. falciparum K1 dose-response, 72 h, SYBR Green-based plate reader assay; assay type: cell-based; settings: Plasmodium falciparum
Experimental: We set up drug efficacy assays for the eight lead compounds 1–5, 12–14 (selected based on the best antimalarial activities) (Table 1), with 72 h incubation on parasitised culture. A dose–response experiment was initiated on 1% synchronous culture at the ring stages of the P. falciparum K1 strain. The selected compounds were tested at three-fold serial dilutions from 6.86 to 5000 nM. […] The selectivity indices (IC50 human cells/IC50 parasites) were calculated based on the 72 h exposure studies and are presented in Table 2.
as §1, §2

[3] = MTT cytotoxicity assay, HepG2; assay type: cell-based, Human; settings: human, HepG2 cells; MTT, 5 days; read-out: Cell Toxicity IC50 ± SE HepG2
Experimental: (§3) An MTT (3-(4,5-dimethylthiazol-2-yl)-2,5-diphenyl tetrazolium bromide) assay was performed to investigate the toxicity of the 4-aminoquinoline hydrazone compounds. HepG2 and MDBK cells were incubated with a two-fold serial dilution at dose ranges from 0.39 to 25 µM for 5 days.
(§4) Human hepatoma (HepG2) and the Madin–Darby bovine kidney (MDBK) cell lines were purchased from American Type Culture Collection (ATCC), USA. The MDBK cell line was cultured with Dulbecco’s Modified Eagle’s Medium (DMEM) containing 4.5 g/L (+)-D-glucose and L-glutamine, while the HepG2 cell line was cultured with RPMI 1640 containing 2 mM L-glutamine and HEPES. The culture medium was supplemented with 10% Fetal Bovine Serum (FBS) and 1% penicillin. Cells were maintained in the presence of 5% CO2 atmosphere at 37 °C. The assay was carried out on a 96-well plate, with each well containing 4 × 10^3 cells. Plates were firstly incubated for 24 h at 37 °C to ensure cell adherence. The cells were then treated with 100 µL of the drug solution prepared at various concentrations and further incubated for 5 days. After the incubation period, 50 µL of the MTT (3-(4,5-dimethylthiazol-2-yl)-2,5-diphenyltetrazolium bromide, Sigma, UK) solution was added to each well and incubated for a further 3 h. The MTT solution and medium were aspirated, 150 µL of DMSO was added to each well, and the results were read on the Ascent plate reader.

HepG2 cells = assay: MTT cytotoxicity assay, HepG2; assay type: cell-based, Human; settings: HepG2 IC50 (5 days) / K1 72 h IC50; IC50 = 25 μM assumed for compound 13
Experimental: as §3, §4

[4] = MTT cytotoxicity assay, MDBK; assay type: cell-based, bovine; settings: bovine, MDBK cells; MTT, 5 days; read-out: Cell Toxicity IC50 ± SE MDBK
Experimental: as §3, §4

MDBK cells = assay: MTT cytotoxicity assay, MDBK; assay type: cell-based, bovine; settings: MDBK IC50 (5 days) / K1 72 h IC50; IC50 = 25 μM assumed for compounds 5 and 13
Experimental: as §3, §4

P. falciparum 3D7 = P. falciparum 3D7 dose-response, 72 h, SYBR Green-based plate reader assay; assay type: cell-based; settings: Plasmodium falciparum, ring stage, read-out: 3D7 IC50 ± SE
Experimental: (§5) The lead compounds 1 and 2 were further evaluated against the chloroquine-resistant P. falciparum Dd2 strain and chloroquine-sensitive P. falciparum 3D7. The drug activity assay was initiated on 1% infected blood at ring stages of the parasites at four-fold serial dilution from 0.00305 to 200 µM. The growth was measured after 72 h using an SYBR Green-based plate reader assay.
as §1

P. falciparum Dd2 strain = assay: P. falciparum Dd2 dose-response, 72 h, SYBR Green-based plate reader assay; assay type: cell-based; settings: Plasmodium falciparum, ring stage, read-out: Dd2 IC50 ± SE
Experimental: as §5, §1

P. yoelii NL = test system: P. yoelii NL
Experimental: We next assessed the antimalarial activity of compound 2 in vivo within a P. yoelii NL murine model of blood-stage malaria. […] Two dosages of the drug were tested, 5 mg/kg and 20 mg/kg (intravenous tail vein injection), while another group of mice was administered with the drug vehicle alone (Figure 3). The lead compound 2 was injected once a day for 4 days, starting at day 11 when the infection level reached ~5% parasitaemia. Mice were monitored for a total of 20 days in order to detect signs of infection rebound or eventual toxicity.
C57BL/6 mice were purchased from Charles River, UK, and were maintained at the University of Manchester in individually ventilated cages. A total of six mice were used for this experiment and kept in the cage (two in each cage) with randomisation of mice given antimalarial drugs and vehicle control. The mice were maintained in individually ventilated cages with food and water ad libitum. Male and females were kept within separate cages during the course of the experiment. The mice generally weighed 18–20 g at the start of the experiment. Cryopreserved P. yoelii NL parasites were passed once through mice before the infection experiment. Male/female mice 6–10 weeks in age were infected with 1 × 10^4 parasitised red blood cells (pRBCs) via intravenous injection in the tail vein. Parasitaemia growth was monitored via Giemsa-stained blood smears. Three groups of mice (placebo, drug dose of 5 mg/kg or 20 mg/kg) were used for this experiment. Compound 2 was injected once a day for 4 days starting at the day the infection level reached ~5% parasitaemia. After the injection, mice were monitored for 20 days to detect eventual signs of both infection rebound and toxicity.

[5] = test system: P. falciparum K1 cultures; assay: Time-course assay, SYBR Green flow cytometer method; assay type: cell-based, Plasmodium falciparum; settings: IC50 doses, 24, 48, 72 h
Experimental: A panel of compounds were selected based on activity and progressed in the time-course assay to define the activity timelines of the compounds. The assay was performed on 1% unsynchronised P. falciparum K1 cultures treated with previously determined IC50 (Table 1) doses of the lead compounds for 24, 48, and 72 h. […] It was also observed that the activity of the compounds became more pronounced as the time progressed up until 72 h of exposure.
The time-course assay was used to define the activity timelines of the 4-aminoquinoline hydrazone compounds. Parasite growth of K1 strain P. falciparum in the presence of 4-aminoquinoline hydrazone compounds was assessed on asynchronous culture. The growth impairment of K1 culture was initiated at 1% parasitaemia for 24, 48, and 72 h. The assay was analysed by flow cytometry as described below.
Following drug efficacy experiments, 100 µL from the control and drug-treated samples on a 96-well plate were transferred to a micro-centrifuge tube containing 1 mL of PBS. The samples were centrifuged at 1200 rpm for 2 min. […] The pellet was re-suspended in PBS (1 mL) and parasitaemia was determined by SYBR Green fluorescence using the FITC channel of the BD FACs Verse flow cytometer system (Blue laser, excitation laser line 488 nM Exmax 494/EMmax 520 nM) and cell size (forward scatter, FSC-A). […]

P. falciparum K1 strain [6] = assay: Stage specificity assay; assay type: cell-based, Plasmodium falciparum; settings: 50–100 times IC50, 24 h exposure, wash-out, further 24 h
Experimental: The stage specificity was evaluated by conducting drug susceptibility experiments on synchronous cultures either at early rings or schizonts stages (as detailed in the Section 4). […] Cultures were exposed to drug treatment for 24 h, after which the compounds were washed out and incubated in complete RPMI medium for a further 24 h.
P. falciparum K1 was synchronised twice with 5% sorbitol at 0 h and 31 h to obtain early rings (up to 3 h old). In order to obtain late trophozoites to early schizonts, the culture was synchronised twice at 0 h and 6 h. Each synchronous stage was diluted to 1% parasitaemia. […] The dilution ranged from 1.6 to 100× fold of the previously determined IC50 of each compound in a standard 48 h assay. After a 24 h incubation period, the plates were washed 4 times resulting in about a 100-fold dilution of the free compound. The plates were further incubated for an additional 24 h at 37 °C and analysed using SYBR Green staining assays as previously described.

[7] = ring stage, 72 h incubation, read-out: Plasmodium IC50 ± SE

IC50 (P. falciparum K1 strain [1]) [µM] | IC50 (P. falciparum K1 strain [2]; [7]) [µM] | Structure (SMILES) | IC50 at 5 days [3] [µM] | Selectivity Indices (HepG2) (HepG2 cells) | IC50 at 5 days [4] [µM] | Selectivity Indices (MDBK) (MDBK cells) | further results
0.612 ± 0.35 | 0.0257 | COc1ccc2nc(C)cc(N/N=C/c3ccc(F)cc3)c2c1 [Compound 1] | 0.872 ± 0.79 | 34 | 3.77 ± 1.5 | 147 | IC50 (P. falciparum K1 strain [2]; 72 h, read-out: IC50): 0.025 µM; IC50 (P. falciparum 3D7): 0.183 µM; IC50 (P. falciparum Dd2 strain): 0.133 µM
2.26 ± 2.2 | 0.0329 ± 0.007 | COc1ccc2nc(C)cc(NN=Cc3ccccc3)c2c1 [Compound 2, 4-(2-benzylidenehydrazinyl)-6-methoxy-2-methylquinoline] | 1.9 ± 0.11 | 58 | 3.44 ± 2.7 | 101 | IC50 (P. falciparum K1 strain [2]; 72 h, read-out: IC50): 0.032 µM; IC50 (P. falciparum 3D7): 0.0554 µM; IC50 (P. falciparum Dd2 strain): 0.0244 µM; Signs of toxicity in treated mice (P. yoelii NL; 5 and 20 mg/kg i.v., monitored over three weeks): no detectable signs of significant toxicity; Effect on parasitaemia, 20 mg/kg and 5 mg/kg (P. yoelii NL; P. yoelii NL-treated mice): suppression of parasitaemia; Parasitaemia after drug treatment was suspended (P. yoelii NL; mice, 5 mg/kg and 20 mg/kg i.v. once a day for 4 days): less than 4%; Effect on parasitaemia, 5 mg/kg (P. yoelii NL; mice, 5 mg/kg i.v. once a day for 4 days): delayed activity
22.3 | – | COc1ccc2nc(C)cc(N/N=C/c3ccc(O)cc3)c2c1 [Compound 8] | 1.97 ± 0.42 | – | 3.73 ± 1.2 | – | –
> 200 | – | COc1ccc2nc(C)cc(N/N=C/c3ccc(C(=O)O)cc3)c2c1 [Compound 9] | > 25 | – | > 25 | – | Plasmodium IC50 ± SE (P. falciparum K1 strain [1]): inactive
18.9 | – | COc1ccc2nc(C)cc(N/N=C/c3cccc(O)c3)c2c1 [Compound 10] | 2.64 ± 0.2 | – | 9.71 ± 3.5 | – | –

Continued, compound first:

Structure (SMILES) | IC50 (P. falciparum K1 strain [1]) [µM] | IC50 (P. falciparum K1 strain [2]; [7]) [µM] | IC50 at 5 days [3] [µM] | Selectivity Indices (HepG2) (HepG2 cells) | IC50 at 5 days [4] [µM] | Selectivity Indices (MDBK) (MDBK cells) | further results
COc1ccc2nc(C)cc(N/N=C/c3cccnc3)c2c1 [Compound 3] | 3.29 ± 1.6 | 0.175 ± 0.04 | 3 ± 0.27 | 17 | 7.34 ± 7.6 | 42 | Onset of activity in time-course [5]: delayed activity
COc1ccc2nc(C)cc(N/N=C/c3cccc(OC)c3O)c2c1 [Compound 5] | 3.82 | 0.174 ± 0.03 | 6.73 ± 0.73 | 39 | > 25 | >143 | Inhibition of parasitaemia growth, schizont stage (P. falciparum K1 strain [6]): more than 25%
COc1ccc2nc(C)cc(N/N=C/c3c[nH]cn3)c2c1 [Compound 6] | 48.8 | – | 7.26 ± 1 | – | 11.7 ± 2.5 | – | –
COc1ccc2nc(C)cc(N/N=C/c3ccc([N+](=O)[O-])cc3)c2c1 [Compound 7] | 20.1 | – | 1.69 | – | 6.68 ± 1.7 | – | –
COc1ccc2nc(C)cc(N/N=C/c3cc(O)cc(O)c3)c2c1 [Compound 11] | 35.9 ± 43 | – | 11.1 ± 2.9 | – | > 25 | – | –
COc1ccc2nc(-c3ccccc3)cc(N/N=C/c3cccc(OC)c3O)c2c1 [Compound 12] | 5.67 ± 13 | 0.133 ± 0.06 | 1.8 ± 0.78 | 14 | 6.6 | 50 | –
COc1ccc2nc(-c3ccccc3)cc(N/N=C/c3ccc([N+](=O)[O-])cc3)c2c1 [Compound 14] | 2.2 ± 1.5 | 0.176 ± 0.06 | 0.89 ± 0.13 | 5 | 4.24 ± 1 | – | Inhibition of parasitaemia growth, schizont stage (P. falciparum K1 strain [6]): more than 25%
COc1ccc2nc(-c3ccccc3)cc(N/N=C/c3c[nH]cn3)c2c1 [Compound 15] | 28.3 ± 29 | – | 2.21 ± 0.15 | – | 9.31 ± 3.5 | – | –
COc1ccc2nc(-c3ccccc3)cc(N/N=C/c3ccc(N(C)C)cc3)c2c1 [Compound 16] | 8.06 ± 4.5 | – | 4.15 ± 2.4 | – | 6.24 | – | –
